Reference: patent US6686355B2, “Biphenyl sulfonamides useful as matrix metalloproteinase inhibitors” (Warner-Lambert Company, priority 2001, dated 2004)

What was measured:
Type in all cases: biochemical
[1] = molecular target: MMP-13CD (catalytic domain of collagenase 3) (Homo sapiens, UniProt P45452); assay: Thiopeptolide hydrolysis assay, MMP-13CD; conditions: thiopeptolide substrate, HEPES pH 7.0, 22° C.
From the text: (§1) The assays measure the amount by which a test compound reduces the hydrolysis of a thiopeptolide substrate catalyzed by a matrix metalloproteinase enzyme. Such assays are described in detail by Ye et al., in Biochemistry, 1992;31(45):11231-11235, which is incorporated herein by reference.
(§2) Thiopeptolide substrates show virtually no decomposition or hydrolysis at or below neutral pH in the absence of a matrix metalloproteinase enzyme. A typical thiopeptolide substrate commonly utilized for assays is Ac-Pro-Leu-Gly-thioester-Leu-Leu-Gly-OEt. A 100 μL assay mixture will contain 50 mM of N-2-hydroxyethylpiperazine-N′-2-ethanesulfonic acid buffer (“HEPES”) at pH 7.0, 10 mM CaCl2, 100 μM thiopeptolide substrate, and 1 mM 5,5″-dithio-bis-(2-nitro-benzoic acid) (DTNB). The thiopeptolide substrate concentration may be varied from, for example, 10 to 800 μM to obtain Km and Kcat values. The change in absorbance at 405 nm is monitored on a Thermo Max microplate reader (Molecular Devices, Menlo Park, Calif.) at room temperature (22° C.). The calculation of the amount of hydrolysis of the thiopeptolide substrate is based on E412=13600 M^−1 cm^−1 for the DTNB-derived product 3-carboxy4-nitrothiophenoxide. Assays are carried out with and without matrix metalloproteinase inhibitor compounds, and the amount of hydrolysis is compared for a determination of inhibitory activity of the test compounds.
(§3) Several representative compounds have been evaluated for their ability to inhibit various matrix metalloproteinase enzymes. In Table I, MMP-1FL refers to full length interstitial collagenase; MMP-2FL refers to full length Gelatinase A; MMP-3CD refers to the catalytic domain of stromelysin-1; MMP-7FL refers to full length matrilysin; MMP-9FL refers to full length Gelatinase B; MMP-13CD refers to the catalytic domain of collagenase 3; and MMP-14CD refers to the catalytic domain of MMP-14. Test compounds were evaluated at various concentrations in order to determine their respective IC50 values, the micromolar concentration of compound required to cause a 50% inhibition of the catalytic activity of the respective enzyme.

[2] = molecular target: MMP-9FL (full length Gelatinase B) (Homo sapiens, UniProt P14780); assay: Thiopeptolide hydrolysis assay, MMP-9FL; conditions: thiopeptolide substrate, HEPES pH 7.0, 22° C.
From the text: as §1, §2, §3

[3] = molecular target: T1, MMP-7FL (full length matrilysin) (Homo sapiens, UniProt P09237); assay: Thiopeptolide hydrolysis assay, MMP-7FL; conditions: thiopeptolide substrate, HEPES pH 7.0, 22° C.
T1 sequence (P09237 95-267): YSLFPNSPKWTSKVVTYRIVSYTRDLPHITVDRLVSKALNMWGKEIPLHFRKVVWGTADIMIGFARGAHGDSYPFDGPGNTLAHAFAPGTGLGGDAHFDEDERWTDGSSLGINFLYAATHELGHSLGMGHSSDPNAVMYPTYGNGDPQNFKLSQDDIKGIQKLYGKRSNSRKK
From the text: as §1, §2, §3

[4] = molecular target: MMP-14CD (catalytic domain of MMP-14) (Homo sapiens, UniProt P50281); assay: Thiopeptolide hydrolysis assay, MMP-14CD; conditions: thiopeptolide substrate, HEPES pH 7.0, 22° C.
From the text: as §1, §2, §3

[5] = molecular target: T2, MMP-1FL (full length interstitial collagenase) (Homo sapiens, UniProt P03956); assay: Thiopeptolide hydrolysis assay, MMP-1FL; conditions: thiopeptolide substrate, HEPES pH 7.0, 22° C.
T2 sequence (P03956 100-469): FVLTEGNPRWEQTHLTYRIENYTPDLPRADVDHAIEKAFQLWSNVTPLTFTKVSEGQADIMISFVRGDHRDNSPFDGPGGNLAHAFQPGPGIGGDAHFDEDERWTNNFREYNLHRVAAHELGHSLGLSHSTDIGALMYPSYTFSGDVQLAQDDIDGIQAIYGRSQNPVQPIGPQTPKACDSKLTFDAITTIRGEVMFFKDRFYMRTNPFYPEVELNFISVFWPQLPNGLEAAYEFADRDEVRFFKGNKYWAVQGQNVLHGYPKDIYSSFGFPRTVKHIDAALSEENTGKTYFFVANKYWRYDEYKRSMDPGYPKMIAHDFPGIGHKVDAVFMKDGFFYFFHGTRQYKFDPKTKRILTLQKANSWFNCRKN
From the text: as §1, §2, §3

[6] = molecular target: T3, MMP-2FL (full length Gelatinase A) (Homo sapiens, UniProt P08253); assay: Thiopeptolide hydrolysis assay, MMP-2FL; conditions: thiopeptolide substrate, HEPES pH 7.0, 22° C.
T3 sequence (P08253 110-660): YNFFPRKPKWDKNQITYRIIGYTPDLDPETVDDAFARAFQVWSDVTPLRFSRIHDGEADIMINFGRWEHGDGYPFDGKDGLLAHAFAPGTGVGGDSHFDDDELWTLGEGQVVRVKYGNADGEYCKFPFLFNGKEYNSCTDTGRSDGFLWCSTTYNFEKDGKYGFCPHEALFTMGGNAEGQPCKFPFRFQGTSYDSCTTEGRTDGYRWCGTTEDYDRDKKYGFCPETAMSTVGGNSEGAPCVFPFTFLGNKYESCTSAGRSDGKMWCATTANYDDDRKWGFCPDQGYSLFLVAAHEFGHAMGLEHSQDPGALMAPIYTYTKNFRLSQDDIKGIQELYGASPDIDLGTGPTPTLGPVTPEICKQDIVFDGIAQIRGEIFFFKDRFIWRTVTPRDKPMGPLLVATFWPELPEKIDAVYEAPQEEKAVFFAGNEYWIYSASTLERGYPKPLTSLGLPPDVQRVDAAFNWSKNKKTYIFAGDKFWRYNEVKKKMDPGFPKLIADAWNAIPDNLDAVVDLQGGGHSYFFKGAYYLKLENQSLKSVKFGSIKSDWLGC
From the text: as §1, §2, §3

[7] = molecular target: MMP-3CD (catalytic domain of stromelysin-1) (Homo sapiens, UniProt P08254); assay: Thiopeptolide hydrolysis assay, MMP-3CD; conditions: thiopeptolide substrate, MES pH 6.0
From the text: as §1, §2, §3
It should be appreciated that the assay buffer used with MMP-3CD was 50 mM of 2-morpholinoethanesulfonic acid monohydrate (“MES”) at pH 6.0 rather than the HEPES buffer at pH 7.0 described above.

MMP-12CD = molecular target: T4, MMP-12CD (Homo sapiens, UniProt P39900); assay: Thiopeptolide hydrolysis assay, MMP-12CD; conditions: thiopeptolide substrate, HEPES pH 7.0, 22° C.
T4 construct: MMP-12CD
From the text: as §1, §2, §3

Chain of MMP-9FL (full length Gelatinase B) (P14780 94-707, species assumed): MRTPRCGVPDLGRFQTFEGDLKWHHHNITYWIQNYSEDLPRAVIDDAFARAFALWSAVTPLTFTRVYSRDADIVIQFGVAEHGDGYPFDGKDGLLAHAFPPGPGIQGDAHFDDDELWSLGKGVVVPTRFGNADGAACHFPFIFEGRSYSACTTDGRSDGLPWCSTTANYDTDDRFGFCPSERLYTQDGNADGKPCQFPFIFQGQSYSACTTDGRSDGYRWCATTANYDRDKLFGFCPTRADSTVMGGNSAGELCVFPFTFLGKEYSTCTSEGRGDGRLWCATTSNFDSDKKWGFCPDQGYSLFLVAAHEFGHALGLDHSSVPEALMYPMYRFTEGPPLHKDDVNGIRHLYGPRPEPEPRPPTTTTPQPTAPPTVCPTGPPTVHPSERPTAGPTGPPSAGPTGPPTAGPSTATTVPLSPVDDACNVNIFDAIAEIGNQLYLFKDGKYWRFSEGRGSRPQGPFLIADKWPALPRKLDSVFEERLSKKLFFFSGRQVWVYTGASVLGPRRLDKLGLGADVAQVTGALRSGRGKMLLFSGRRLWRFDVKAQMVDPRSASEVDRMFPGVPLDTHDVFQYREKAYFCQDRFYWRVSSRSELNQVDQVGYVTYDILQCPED
Chain of MMP-3CD (catalytic domain of stromelysin-1) (P08254 100-272 limits assumed): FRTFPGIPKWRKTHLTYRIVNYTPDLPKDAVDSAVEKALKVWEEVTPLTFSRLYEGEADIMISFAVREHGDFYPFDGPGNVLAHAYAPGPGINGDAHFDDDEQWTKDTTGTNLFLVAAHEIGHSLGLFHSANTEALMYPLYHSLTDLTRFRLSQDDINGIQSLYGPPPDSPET
T4 sequence (P39900 106-263 limits assumed): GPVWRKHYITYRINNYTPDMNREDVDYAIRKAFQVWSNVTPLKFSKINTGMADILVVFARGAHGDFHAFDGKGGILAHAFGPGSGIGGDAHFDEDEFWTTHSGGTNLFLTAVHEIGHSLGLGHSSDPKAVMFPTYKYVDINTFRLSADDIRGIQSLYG

Compound: CC1(C)SCCN(S(=O)(=O)c2ccc(-c3ccc(Br)cc3)cc2)[C@H]1C(=O)O [Example 1, (S)-4-(4′-Bromo-biphenyl-4-sulfonyl)-2,2-dimethyl-thiomorpholine-3-carboxylic acid]
- IC50 [1]: 0.016 µM
- IC50 [2]: 0.26 µM
- IC50 [3]: 10 µM
- IC50 [4]: 0.048 µM
- IC50 [5]: 3.1 µM
- IC50 [6]: 0.006 µM
- IC50 [7]: 0.003 µM

Compound: CC1(C)SCCN(S(=O)(=O)c2ccc(-c3ccc(Br)cc3)cc2)[C@H]1C(=O)NO [Example 2, (S)-4-(4′-Bromo-biphenyl-4-sulfonyl)-2,2-dimethyl-thiomorpholine-3-carboxylic acid hydroxyamide]
- IC50 [1]: 0.001 µM
- IC50 [2]: 0.001 µM
- IC50 [3]: 0.037 µM
- IC50 [4]: 0.001 µM
- IC50 [5]: 0.002 µM
- IC50 [6]: 0.002 µM
- IC50 [7]: 0.002 µM

Compound: CC1(C)[C@H](C(=O)O)N(S(=O)(=O)c2ccc(-c3ccc(Br)cc3)cc2)CCS1(=O)=O [Example 3, (S)-4-(4′-Bromo-biphenyl-4-sulfonyl)-2,2-dimethyl-1,1-dioxo-thiomorpholine-3-carboxylic acid]
- IC50 [1]: 0.032 µM
- IC50 [2]: 0.78 µM
- IC50 [3]: 8.8 µM
- IC50 [4]: 0.059 µM
- IC50 [5]: 1.7 µM
- IC50 [6]: 0.012 µM
- IC50 [7]: 0.005 µM

Compound: CC1(C)[C@H](C(=O)NO)N(S(=O)(=O)c2ccc(-c3ccc(Br)cc3)cc2)CCS1(=O)=O [Example 4, (S)-4-(4′-Bromo-biphenyl-4-sulfonyl)-2,2-dimethyl-1,1-dioxo-thiomorpholine-3-carboxylic acid hydroxyamide]
- IC50 [1]: 0.001 µM
- IC50 [2]: 0.004 µM
- IC50 [3]: 0.031 µM
- IC50 [4]: 0.002 µM
- IC50 [5]: 0.005 µM
- IC50 [6]: 0.001 µM
- IC50 [7]: 0.003 µM

Compound: CC1(C)SCCN(S(=O)(=O)c2ccc(-c3ccc(CO)cc3)cc2)[C@H]1C(=O)O [Example 5, (S)-4-(4′-Hydroxymethyl-biphenyl-4-sulfonyl)-2,2-dimethyl-thiomorpholine-3-carboxylic acid]
- IC50 [1]: 0.047 µM
- IC50 [2]: 0.063 µM
- IC50 [3]: 10 µM
- IC50 [4]: 0.24 µM
- IC50 [5]: 1.5 µM
- IC50 [6]: 0.018 µM
- IC50 [7]: 0.027 µM

Compound: CC1(C)SCCN(S(=O)(=O)c2ccc(-c3ccc(OC(F)(F)F)cc3)cc2)[C@H]1C(=O)O [Example 45, (S)-2,2-Dimethyl-4-(4′-trifluoromethoxy-biphenyl-4-sulfonyl)-thiomorpholine-3-carboxylic acid]
- IC50 [2]: 0.098 µM
- IC50 (MMP-12CD): 0.001 µM
- IC50 [4]: 0.128 µM
- IC50 [5]: 5.75 µM
- IC50 [6]: 0.0027 µM
- IC50 [7]: 0.004 µM

Compound: COc1ccc(-c2ccc(S(=O)(=O)N3CCSC(C)(C)[C@@H]3C(=O)O)cc2)cc1C=O [Example 48, (S)-4-(3′-Formyl-4′-methoxy-biphenyl-4-sulfonyl)-2,2-dimethyl-thiomorpholine-3-carboxylic acid]
- IC50 [1]: 2.04 µM
- IC50 [2]: 25.8 µM
- IC50 [4]: 0.037 µM
- IC50 [6]: 1.55 µM
- IC50 [7]: 0.775 µM

Compound: CN(C)c1ccc(-c2ccc(S(=O)(=O)N3CCSC(C)(C)[C@@H]3C(=O)O)cc2)cc1 [Example 54]
- IC50 [1]: 0.013 µM
- IC50 [2]: 0.17 µM
- IC50 (MMP-12CD): 0.0103 µM
- IC50 [4]: 0.19 µM
- IC50 [5]: 11.3 µM
- IC50 [6]: 0.024 µM
- IC50 [7]: 0.03 µM

Compound: CC1(C)SCCN(S(=O)(=O)c2ccc(-c3cccc(OC(F)(F)F)c3)cc2)[C@H]1C(=O)O [Example 59, (S)-2,2-Dimethyl-4-(3′-trifluoromethoxy-biphenyl-4-sulfonyl)-thiomorpholine-3-carboxylic acid]
- IC50 [1]: 5.3 µM
- IC50 [2]: 30 µM
- IC50 [6]: 5.2 µM
- IC50 [7]: 1.1 µM

Compound: CC(=O)c1cccc(-c2ccc(S(=O)(=O)N3CCSC(C)(C)[C@@H]3C(=O)O)cc2)c1 [Example 61, (S)-4-(3′-Acetyl-biphenyl-4-sulfonyl)-2,2-dimethyl-thiomorpholine-3-carboxylic acid]
- IC50 [1]: 2.9 µM
- IC50 [2]: 49 µM
- IC50 [6]: 3.4 µM
- IC50 [7]: 0.763 µM
